Results taken from PubChem BioAssay AID256 (DTP/NCI, 2004).
Values joined by “and” are separate entries in the source; they are usually repeats but may differ in a detail not shown here. Identical values can stand only once. Toxic doses and inconclusive results are not listed. Non-standard residues stand in square brackets, D forms with d. Residues, ends and D or L forms follow the SMILES beside them. ξ: configuration not given here. *: point of attachment. ξE = NC(CCC(=O)O)C(=O)O; Cbz = O=C(OCc1ccccc1)*; OBn = c1ccc(CO*)cc1

Test system: CD2F1 mice, L1210 leukemia ip, survival T/C
Experiment: NCI In Vivo Anticancer Drug Screen. Data for tumor model L1210 Leukemia (intraperitoneal) in CD2F1 (CDF1) mice
Settings: higher = longer survival
How it was run: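 Transplantable tumor in mice; compound-treated vs vehicle-treated groups. Read-out = treated/control ratio of the measured endpoint.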

[1] = endpoint: mean survival time, dose: 50.0 mg/kg/injection, schedule: Q01DX009 (ip), vehicle: Klucel (hydroxypropylcellulose) (HPC)
[2] = endpoint: mean survival time, dose: 100.0 mg/kg/injection, schedule: Q01DX009 (ip), vehicle: Klucel (hydroxypropylcellulose) (HPC)
[3] = endpoint: mean survival time, dose: 200.0 mg/kg/injection, schedule: Q01DX009 (ip), vehicle: Klucel (hydroxypropylcellulose) (HPC)
[4] = endpoint: mean survival time, dose: 100.0 mg/kg/injection, schedule: Q01DX009 (ip), vehicle: saline with Tween-80
[5] = endpoint: mean survival time, dose: 200.0 mg/kg/injection, schedule: Q01DX009 (ip), vehicle: saline with Tween-80
[6] = endpoint: mean survival time, dose: 400.0 mg/kg/injection, schedule: Q01DX009 (ip), vehicle: saline with Tween-80

`C=Cc1cnc([N+](=O)[O-])n1C` was tested, and the T/C (endpoint: mean survival time, dose: 12.5 mg/kg/injection, schedule: Q01DX009 (ip), vehicle: Klucel (hydroxypropylcellulose) (HPC)) was 103 % of control, the T/C (endpoint: mean survival time, dose: 25.0 mg/kg/injection, schedule: Q01DX009 (ip), vehicle: Klucel (hydroxypropylcellulose) (HPC)) was 101 % of control and the T/C [1] was 101 % of control. The T/C [2] was 103 % of control and the T/C [3] was 101 % of control.
For `CCCCCCC(=O)CCCCCC/C=C/CC(O)C(O)C(N)(CO)C(=O)O` (configuration not stated), the T/C (endpoint: mean survival time, dose: 12.5 mg/kg/injection, schedule: Q04DX002 (ip), vehicle: saline with Tween-80) was 86 % of control.
In the case of `CCOC(=O)CC(=O)c1ccc(C)cc1`, the T/C [4] is reported as 96 % of control, the T/C [5] is reported as 105 % of control and the T/C [6] is reported as 89 % of control.
For `CC(C)c1nn[nH]n1`, the T/C (endpoint: median survival time, dose: 50.0 mg/kg/injection, schedule: Q01DX009 (ip), vehicle: saline + alcohol) was 93 % of control, the T/C (endpoint: median survival time, dose: 100.0 mg/kg/injection, schedule: Q01DX009 (ip), vehicle: saline + alcohol) was 91 % of control and the T/C (endpoint: median survival time, dose: 200.0 mg/kg/injection, schedule: Q01DX009 (ip), vehicle: saline + alcohol) was 100 % of control. The T/C (endpoint: median survival time, dose: 400.0 mg/kg/injection, schedule: Q01DX009 (ip), vehicle: saline + alcohol) was 93 % of control.
For `N#Cc1c(F)c(F)c(C#N)c(F)c1F`, the T/C (endpoint: mean survival time, dose: 5.0 mg/kg/injection, schedule: Q04DX003 (ip), vehicle: Klucel (hydroxypropylcellulose) (HPC)) was 104 % of control, the T/C (endpoint: mean survival time, dose: 10.0 mg/kg/injection, schedule: Q04DX003 (ip), vehicle: Klucel (hydroxypropylcellulose) (HPC)) was 106 % of control and the T/C (endpoint: mean survival time, dose: 20.0 mg/kg/injection, schedule: Q04DX003 (ip), vehicle: Klucel (hydroxypropylcellulose) (HPC)) was 102 % of control. The T/C (endpoint: mean survival time, dose: 40.0 mg/kg/injection, schedule: Q04DX003 (ip), vehicle: Klucel (hydroxypropylcellulose) (HPC)) was 104 % of control.
In the case of `O=C(CNC(=O)OCc1ccccc1)NCC(=O)NC(CCC(=O)OCc1ccccc1)C(=O)OCc1ccccc1` (stereo not drawn) (Cbz-Gly-Gly-[ξE](OBn)-OBn), the T/C (endpoint: mean survival time, dose: 100.0 mg/kg/injection, schedule: Q04DX003 (ip), vehicle: other) is reported as 95 % of control, the T/C (endpoint: mean survival time, dose: 200.0 mg/kg/injection, schedule: Q04DX003 (ip), vehicle: other) is reported as 91 % of control and the T/C (endpoint: mean survival time, dose: 400.0 mg/kg/injection, schedule: Q04DX003 (ip), vehicle: other) is reported as 95 % of control.
With `Nc1nc(N)nc(C(=O)CCC(=O)O)n1` the T/C (endpoint: mean survival time, dose: 50.0 mg/kg/injection, schedule: Q01DX009 (ip), vehicle: saline with Tween-80) was 95 % of control, the T/C [4] was 95 % of control and the T/C [5] was 95 % of control.
`C/C(=N/O)c1ccc(F)cc1` was tested, and the T/C [4] was 100 % of control, the T/C (endpoint: mean survival time, dose: 100.0 mg/kg/injection, schedule: Q04DX003 (ip), vehicle: saline with Tween-80) was 94 % of control and 97 % of control and the T/C [5] was 93 % of control and 95 % of control. For the same compound, the T/C (endpoint: mean survival time, dose: 200.0 mg/kg/injection, schedule: Q04DX003 (ip), vehicle: saline with Tween-80) was 94 % of control, the T/C [6] was 94 % of control and 102 % of control and the T/C (endpoint: mean survival time, dose: 400.0 mg/kg/injection, schedule: Q04DX003 (ip), vehicle: saline with Tween-80) was 89 % of control and 96 % of control.
`CCN(CC)CCNc1cc(OC)cc2cccnc12` was tested, and the T/C (endpoint: mean survival time, dose: 6.25 mg/kg/injection, schedule: Q04DX002 (ip), vehicle: saline) was 98 % of control, the T/C (endpoint: mean survival time, dose: 12.5 mg/kg/injection, schedule: Q04DX002 (ip), vehicle: saline) was 98 % of control and the T/C (endpoint: mean survival time, dose: 25.0 mg/kg/injection, schedule: Q04DX002 (ip), vehicle: saline) was 95 % of control.
`Nc1nc(N)c(CCCOc2ccc(C(=O)O)cc2)c(N)n1` was tested, and the T/C [1] was 94 % of control, the T/C [2] was 101 % of control and the T/C [3] was 94 % of control.
With `NC(N)=NS(=O)(=O)c1ccc(NCc2c3ccccc3nc3ccccc23)cc1` the T/C (endpoint: median survival time, dose: 50.0 mg/kg/injection, schedule: Q01DX005 (ip), vehicle: Klucel (hydroxypropylcellulose) (HPC)) was 150 % of control, the T/C (endpoint: median survival time, dose: 172.8 mg/kg/injection, schedule: Q01DX005 (ip), vehicle: Klucel (hydroxypropylcellulose) (HPC)) was 178 % of control and the T/C (endpoint: median survival time, dose: 200.0 mg/kg/injection, schedule: Q01DX005 (ip), vehicle: Klucel (hydroxypropylcellulose) (HPC)) was 153 % of control. The T/C (endpoint: median survival time, dose: 400.0 mg/kg/injection, schedule: Q01DX005 (ip), vehicle: Klucel (hydroxypropylcellulose) (HPC)) was 172 % of control, the T/C (endpoint: median survival time, dose: 480.0 mg/kg/injection, schedule: Q01DX005 (ip), vehicle: Klucel (hydroxypropylcellulose) (HPC)) was 150 % of control and the T/C (endpoint: median survival time, dose: 800.0 mg/kg/injection, schedule: Q01DX005 (ip), vehicle: Klucel (hydroxypropylcellulose) (HPC)) was 178 % of control and 182 % of control. The T/C (endpoint: median survival time, dose: 1333.33 mg/kg/injection, schedule: Q01DX005 (ip), vehicle: Klucel (hydroxypropylcellulose) (HPC)) was 187 % of control.
